Data reported in US7422883B2, “Map kinase integrin-binding domain” (Inter-K Pty Limited, priority 2000, dated 2008).
No end group written: not given here.

Experiments:
SW480 β6 transfectants = assay: WST-1 growth inhibition, SW480 β6-expressing cells; format: cell-based, human; conditions: 30 μm, 24 hours, serum-free, FIG. 29
Method: (§1) HT29 and SW480 β6-expressing colon cancer cell lines were seeded into wells of 96-well microtitre plates (Nunclon) in Dulbecco's Modified Eagle's Medium (DMEM) supplemented with 10% foetal bovine serum, glutamine, Hepes, and antibiotics. […] The cell proliferation reagent WST-1 is designed to be used for the non-radioactive, spectrophotometric quantification of cell growth and viability in proliferation and chemosensitivity assays. […]
(§2) Specifically, at the termination of experiments, 30 μl of WST-1 was added to 270 μl culture medium volume in each microtitre well and the colour change quantitated in an ELISA plate reader by measuring absorbance of the formazan product at […] (using a reference wavelength of more than 600 nm). The mean absorbance readings from triplicate wells (±standard error of the means) after subtraction of background control wells (culture medium without cells) was determined.
[…] Percentage inhibition was assessed by the WST-1 colorimetric dehydrogenase assay described in Example 6. […]

ERK2 = biological target: T1, ERK2 (Mus musculus, UniProt P63085); assay: ELISA of ERK2 binding to biotinylated integrin cytoplasmic domain peptides
T1 construct: GST (glutathione-S-transferase); made in house
Method: Peptide fragments corresponding to regions of the cytoplasmic tail domain of the β6 subunit were screened in an enzyme-linked immunosorbent assay (ELISA) for binding with ERK2. The 52 amino acid long β6 cytoplasmic tail is shown in FIG. 16 as are the amino acid sequences for the cytoplasmic domains of the β1 to β3 subunits. In particular, four synthetic peptides designated fragment 1 to fragment 4 were prepared and biotinylated at the N-terminal end of each, respectively (Auspep Pty Ltd, Melbourne Australia).
Overlapping biotinylated fragments 1 to 4 were coated onto streptavidin coated polystyrene plates (Pierce, Rockford Ill. USA, Cat No. 15125) and the ELISA performed substantially according to manufacturers instructions. Briefly, wells are washed with 3×200 μl of wash buffer (TBS, 0.1% BSA, 0.05% Tween 20 or SuperBlock™ blocking buffer in TBS, Pierce, Prod. No. 37535) prior to addition of biotinylated peptides (100 μl) and incubation for 1 hr at room temperature to allow for capture of the peptides on the plate. Following another washing step, peptides were overlayed with GST-ERK, ERK (or JNK-1) alone at a volume of 100 μl per well, and the plates incubated for a further 1 hr at room temperature before removal of any unbound ERK by further washing.
Binding of ERK to the peptides is detected using 100 μl anti-ERK1/2 mAb SC1647 (Santa Cruz) as the primary antibody at a dilution of 1:700 (isotype matched antibody IgG2b is used as a control). This is followed by another washing step and addition of 100 μl rabbit anti-mouse antibody (Biorad) conjugated to alkaline phosphatase at a concentration of 1:1000 for 30 minutes again at room temperature. A […] of detection reagent (alkaline phosphatase detection kit-Biorad) is then introduced into each well after a final washing step and allowed to react for 15-30 minutes at room temperature in the dark before absorbance is measured at 405 nm. All dilutions of peptides, MAP kinase and antibodies were performed using the wash buffer. GST-ERK is a fusion protein consisting of ERK coupled to glutathione-S-transferase and purified from host cells transfected with pGEX vector.
To further localise the binding domain on the cytoplasmic tail of the β6 subunit, progressively shorter peptides from the region of the β6 cytoplasmic tail corresponding to peptide fragment 2 were synthesised, biotinylated and the capacity to associate or otherwise bind to ERK2 assessed as described above. The binding of GST.ERK2 to a 15 mer test peptide (seq. 4) having the amino acid sequence RSKAKWQTGTNPLYR (SEQ ID NO: 7) and a 10 mer test peptide having the sequence RSKAKWQTGT (SEQ ID NO: 21) is shown in FIG. 20 compared to fragment 2 over a range of concentrations of the peptides. […] 4 peptide compared to fragment 2 was found. Binding of ERK2 to the seq. 3 peptide was substantially less than that observed for seq. 4.
Binding of ERK2 to the seq.4 peptide (RSKAKWQTGTNPLYR) (SEQ ID NO: 7) was compared with peptides corresponding to regions of the cytoplasmic domain of integrin subunits β1, β2, β3 and β5. The amino acid sequences for those peptides is shown below:
To evaluate this, cell lysates containing equal protein loads were prepared from SW480 wild-type cells and SW480 cells transfected with either vector alone (mock transfectants), wild type β6 or the β6 deletion mutant Δ746-764 (lacking the sequence EAERSKAKWQTGTNPLYRG (SEQ ID NO: 26), Cone et al, 1994). The lysates were immunoprecipitated with mAbs R6G9 (anti-β6), P1F6 (anti-β5) or murine IgG control antibody (mlgG). […] To determine whether β5 can bind ERK2 in vitro, a 15-mer peptide fragment derived from the β5 cytoplasmic domain corresponding to the ERK binding domain on β6 was tested for its ability to bind ERK2 in an ELISA.

SW480 cells = assay: In vitro wound assay (cell migration); format: cell-based, human; conditions: SW480 lacking αvβ6, 1.25-10 μM, 48 hours, 1% foetal calf serum; FIG. 40
Method: The wound assay was performed by seeding 2×10^5 cells into 24 well (1.6 cm diameter) tissue culture plates in Dulbecco's modified Eagles medium (DMEM) supplemented by 10% foetal calf serum, HEPES, glutamine and antibiotics. The confluent cell monolayers were streaked with the tip of a plastic pipette in a cross-wire fashion, and loose non-adherent cells washed off gently with medium before replacing the culture medium with DMEM supplemented with 1% foetal calf serum. In addition, RSKAKWQTGTNPLYR (SEQ ID NO: 7) peptide ligated to penetratin (carrier peptide) by means of cysteine Cys (Npys) bonding was added to each well at a final concentration in the range of 1.25-10 μM. Cell migration across the wounded (streaked) area was photographed (Techpan, Kodachrome, ASA100) after a further 48 hours in culture. […] The conditions utilised in the assay were as follows: A: no peptide-penetratin complex added, B: 2.5 μM peptide-penetratin complex added, C: 5 μM peptide-penetratin complex added, D: 10 μM peptide-penetratin complex added.

HT29 colon cancer cells = assay: WST-1 growth inhibition study, HT29; format: cell-based, human; conditions: HT29, 10 μm, 24 hours, serum-free; FIG. 28
Method: as §1, §2

T1 sequence (P63085 whole entry, the tested form may be a part): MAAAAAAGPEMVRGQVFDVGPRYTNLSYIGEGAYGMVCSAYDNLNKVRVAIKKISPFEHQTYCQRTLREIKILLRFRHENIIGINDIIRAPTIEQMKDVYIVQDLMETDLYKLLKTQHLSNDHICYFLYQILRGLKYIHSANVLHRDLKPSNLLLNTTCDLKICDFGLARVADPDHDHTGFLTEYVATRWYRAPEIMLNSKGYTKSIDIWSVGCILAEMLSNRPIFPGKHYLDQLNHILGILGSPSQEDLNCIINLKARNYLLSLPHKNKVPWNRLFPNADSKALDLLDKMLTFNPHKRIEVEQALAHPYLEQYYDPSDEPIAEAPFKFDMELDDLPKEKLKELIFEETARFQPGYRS

binding of ERK2 to integrin subunit peptides (ERK2; corrected for non-specific binding, FIG. 34): significant binding | binding of GST.ERK2 to peptide (ERK2; over a range of concentrations of the peptides, compared to fragment 2, FIG. 20): no reduction in binding
Sequence: RSKAKWQTGTNPLYR (also: biotinylated, site not given here) [seq. 4, 15 mer fragment of the β6 cytoplasmic domain]
inhibition of cell proliferation (WST-1) (SW480 β6 transfectants): Only the carrier penetratin-peptide complex was effective in inhibiting cell proliferation in contrast to either peptide or penetratin alone | cell migration across wounded area (wound repair) (SW480 cells): not stimulated | inhibition of cell proliferation (WST-1) (HT29 colon cancer cells): Only the carrier penetratin-peptide complex was effective in inhibiting cell proliferation in contrast to either peptide or penetratin alone
